According to article PMC6155162, “Identification of mesothelioma-specific sialylated epitope recognized with monoclonal antibody SKM9-2 in a mucin-like membrane protein HEG1” (Scientific Reports, 2018):
Entries after “also recorded” stand apart in the source; their conditions may differ.

How the values were obtained:
SKM9-2 [1] = test: SPR analysis of binding between SKM9-2 and soluble His-tagged minimum epitope peptides (SKMepmin)
Experimental: Figure 5 SPR analysis of the binding kinetics between SKM9-2 and mutants of minimum epitope. A soluble His-tagged mutant of minimum epitope (SKMepmin) was secreted from transfected HEK293T and immobilized as a ligand on the Ni^2+-binding sensor chip NTA. The upper sensorgrams show the binding kinetics of analyte (5 µg/mL of SKM9-2) to SKMepmins. The control without any peptide is shown as “No peptide” and the negative control peptide cycle is shown as “Control peptide”. The glycan-digested SKMepmin3 that was treated with Neuraminidase A and O-Glycosidase was used as the negative control peptide. The dissociation constant in the lower bar graph was calculated using the manufacturer’s instructions. RU, response units; Signal sequence, the artificial signal sequence (MAPLLLLLLPLLLLPPAAP).
(§1) Figure 7 SPR analysis of bindings of lectin and SKM9-2 to glycosidase-treated SKMepmin3. Purified SKMepmin3 was incubated with α2-3 Neuraminidase S, Neuraminidase A, or Neuraminidase A + O-Glycosidase; and then was immobilized as a ligand on Ni^2+-binding sensor chip NTA. The analytes were used at a concentration of 5 µg/mL. (a) ABA, (b) Jacalin, (c) rACG, (d) SKM9-2. Glycosidase-digested sample was not tested in the experiment with rACG.
(§2) Cell lysate or SKMepmin3 was treated with α2-3 Neuraminidase S, α2-3, 6, 8, 9 Neuraminidase A, and O-Glycosidase (New England Biolabs Japan, Tokyo, Japan) in 50 mM sodium phosphate (pH 7.5) containing 1% Nonidet P-40, according to the manufacturer’s instructions. The cell lysate sample was resolved by 4–15% or 6% SDS-PAGE under reducing conditions and detected by western blotting using SKM9-2. The analysis of the SKMepmin3 sample was performed by SPR.
(§3) The binding of SKM9-2 or lectin to SKMepmin was measured by SPR analysis. SKMepmin was diluted with a running buffer (10 mM HEPES buffer (pH 8.1) containing 150 mM NaCl and 0.005% Tween-20), flowed on Ni^2+-binding sensor chip NTA (GE Healthcare), and affinity-bound through His-tag as a ligand on the sensor chip. Binding analysis of SKM9-2 was performed in a running buffer containing 50 µM EDTA. A non-treated flow cell was used as a reference cell. SKM9-2, anti-sialyl Lewis^X (CSLEX1, Becton, Dickinson and Company Japan, Tokyo, Japan), rACG (Wako Pure Chemical Industries), biotinylated ABA (J-Oil Mills, Inc., Tokyo, Japan), or biotinylated Jacalin (Vector Laboratories, Inc., Burlingame, CA, USA) (each 5 µg/mL) was injected as an analyte with the running buffer. As a regeneration buffer, 350 mM EDTA was used. The dissociation constant was calculated using the manufacturer’s instructions.

[2] = tested on: Agaricus bisporus agglutinin (ABA); test: SPR lectin binding analysis of glycosidase-treated SKMepmin3: ABA; conditions: ABA 5 µg/mL
Experimental: as §1, §2, §3

Jacalin = test: SPR lectin binding analysis of glycosidase-treated SKMepmin3: Jacalin
Experimental: as §1, §2, §3

[3] = tested on: recombinant Agrocybe cylindracea lectin (rACG); test: SPR lectin binding analysis of SKMepmin3: rACG; conditions: non-treated SKMepmin3, rACG 5 µg/mL
Experimental: as §1, §3

[4] = tested on: anti-sialyl Lewis^X (CSLEX1); test: SPR analysis of binding of anti-sialyl LewisX to SKMepmin3; conditions: purified SKMepmin3 on sensor chip NTA, analyte 5 µg/mL
Experimental: as §3
Supplementary Fig. S2. SPR analysis of binding of anti-sialyl LewisX to SKMepmin3.
Purified SKMepmin3 was immobilized as a ligand on Ni2+-binding sensor chip NTA. The analytes
were used at the concentration of 5 µg/mL.

SKM9-2 [5] = test: Deglycosylation analysis: western blotting using SKM9-2 of neuraminidase-treated cell lysates; type: binding; conditions: full-length HEG1, lysates of ACC-MESO4 (native) or HEG1-transfected HEK293T, 6% SDS-PAGE
Excerpt: Figure 8 SKM9-2 epitope produced from mesothelioma cells. (a) Chromatogram of SKMepmin3 separation using anion exchange column. SKMepmin3 produced from HEK293T (blue line) or ACC-MESO4 (pink line) was affinity-purified using SKM9-2-immobilized resins and separated by Mini Q 4.6/50 PE. A major peak of SKMepmin3 purified from HEK293T contained two disialyl T antigens (Fig. 6). (b) Western blotting for epitope-fused GPI-anchor protein (7.6231) treated with neuraminidases. Cell lysate of 7.6231-transfected ACC-MESO1 (top panel), ACC-MESO4 (middle panel), or HEK293T (lower panel) was treated with α2-3 Neuraminidase S or Neuraminidase A, resolved by 4–15% SDS-PAGE, and analyzed by western blotting using SKM9-2. (c) Western blotting for full-length HEG1 treated with neuraminidases. Cell lysates of ACC-MESO4 (upper panel) and HEG1-transfected HEK293T (lower panel) were treated with α2-3 Neuraminidase S or Neuraminidase A and analyzed by 6% SDS-PAGE and western blotting using SKM9-2. (d) Schematic of SKM9-2 epitope. Full-length blots are presented in Supplementary Fig. S10.
Monolayer cells were solubilized with 20 mM Tris buffer (pH 8.0) containing 1% SDS, 1 mM phenylmethylsulfonyl fluoride, 125 mU/mL Benzonase Nuclease (Merck Millipore Co., Tokyo, Japan) (25 µL/cm^2 culture surface area). The lysate (10 µL/lane) was resolved by SDS-PAGE under reducing conditions using 6% polyacrylamide gels or 4–15% precast gels (Bio-Rad Laboratories Inc., Hercules, CA, USA). Then it was transferred to a polyvinylidene difluoride membrane (Immobilon-P; Merck Millipore Co.) by semi-dry blotting in a buffer containing 25 mM Tris, 192 mM glycine, 0.1% SDS, and 20% methanol. The membrane was blocked with 5% non-fat milk in 20 mM Tris-buffered saline (pH 7.2) containing 0.1% Tween 20 and reacted with 1 µg/mL of mAb SKM9-2 or anti-FLAG (Anti-DYKDDDDK tag mAb; 1E6, Wako Pure Chemical Industries, Osaka, Japan). After washing, it was treated with horseradish peroxidase-conjugated goat anti-mouse IgG (Jackson ImmunoResearch, West Grove, PA, USA), and developed with Amersham ECL select (GE Healthcare, Buckinghamshire, UK). Although glycan in non-fat milk often interferes the glycan-dependent binding of an antibody, the SKM9-2 binding was not affected by the blocking using non-fat milk, in comparison with 5% bovine serum albumin (Supplementary Fig. S6).
as §2

Row | Molecule | Kd (SKM9-2 [1]; His-tagged SKMepmin secreted from transfected HEK293T immobilized on Ni2+-binding sensor chip NTA, analyte 5 µg/mL SKM9-2, running buffer 10 mM HEPES pH 8.1, 150 mM NaCl, 0.005% Tween-20, 50 µM EDTA, read-out: KD (M), dissociation constant) [M] | persistent binding of SKM9-2 (SKM9-2 [1]; SKMepmin3 desialylated with Neuraminidase A, SKM9-2 5 µg/mL) | SKM9-2 binding (SKM9-2 [1]; SKMepmin3 treated with α2–3 Neuraminidase S, SKM9-2 5 µg/mL) | association rate between SKM9-2 and epitope peptide (in words) (SKM9-2 [1]; analyte 5 µg/mL SKM9-2, change caused by the substitution) | interaction between SKM9-2 and SKMepmin3 (SKM9-2 [1]; complete digest of glycan using O-Glycosidase (with Neuraminidase A), SKM9-2 5 µg/mL) | ABA binding ([2]; SKMepmin3 deglycosylated with O-Glycosidase and Neuraminidase A) | ABA binding ([2]; SKMepmin3 desialylated with Neuraminidase A) | ABA binding ([2]; non-treated SKMepmin3 as ligand) | Jacalin binding (Jacalin; SKMepmin3 desialylated with Neuraminidase A, Jacalin 5 µg/mL) | Jacalin binding (Jacalin; deglycosylated SKMepmin3 (Neuraminidase A + O-Glycosidase), Jacalin 5 µg/mL) | Jacalin binding (Jacalin; non-treated SKMepmin3, Jacalin 5 µg/mL) | rACG binding [3] | anti-sialyl Lewis^X antibody binding [4] | SKM9-2 binding (western blot) (SKM9-2 [5]; Neuraminidase A) | SKM9-2 binding (western blot) (SKM9-2 [5]; α2–3 Neuraminidase S)
1 | MAPLLLLLLPLLLLPPAAPGGSKAPSLVSLPAGGDYKDDDDKHHHHHHHH [SKMepmin3, minimum glycosylation peptide 893-…-903 -FLAG-Hisx8 with two disialyl T at Ser893 and Ser900] | 2.82e-09 | lost | weakened | increased | eliminated | lost | enhanced | bound | recognized | not | did not bind | interacted | did not bind; also recorded: not bound | – | –
2 | recombinant HEG1: full-length recombinant HEG1 (1-1481) expressed in HEK293T (protein, UniProt Q9ULI3 1-1381, looked up, full-length FLAG tag, full-length recombinant HEG1 (1-1481) expressed in HEK293T) MASPRASRWPPPLLLLLLPLLLLPPAAPGTRDPPPSPARRALSLAPLAGAGLELQLERRPEREPPPTPPRERRGPATPGPSYRAPEPGAATQRGPSGRAPRGGSADAAWKHWPESNTEAHVENITFYQNQEDFSTVSSKEGVMVQTSGKSHAASDAPENLTLLAETADARGRSGSSSRTNFTILPVGYSLEIATALTSQSGNLASESLHLPSSSSEFDERIAAFQTKSGTASEMGTERAMGLSEEWTVHSQEATTSAWSPSFLPALEMGELTTPSRKRNSSGPDLSWLHFYRTAASSPLLDLSSSSESTEKLNNSTGLQSSSVSQTKTMHVATVFTDGGPRTLRSLTVSLGPVSKTEGFPKDSRIATTSSSVLLSPSAVESRRNSRVTGNPGDEEFIEPSTENEFGLTSLRWQNDSPTFGEHQLASSSEVQNGSPMSQTETVSRSVAPMRGGEITAHWLLTNSTTSADVTGSSASYPEGVNASVLTQFSDSTVQSGGSHTALGDRSYSESSSTSSSESLNSSAPRGERSIAGISYGQVRGTAIEQRTSSDHTDHTYLSSTFTKGERALLSITDNSSSSDIVESSTSYIKISNSSHSEYSSFFHAQTERSNISSYDGEYAQPSTESPVLHTSNLPSYTPTINMPNTSVVLDTDAEFVSDSSSSSSSSSSSSSSGPPLPLPSVSQSHHLFSSILPSTRASVHLLKSTSDASTPWSSSPSPLPVSLTTSTSAPLSVSQTTLPQSSSTPVLPRARETPVTSFQTSTMTSFMTMLHSSQTADLKSQSTPHQEKVITESKSPSLVSLPTESTKAVTTNSPLPPSLTESSTEQTLPATSTNLAQMSPTFTTTILKTSQPLMTTPGTLSSTASLVTGPIAVQTTAGKQLSLTHPEILVPQISTEGGISTERNRVIVDATTGLIPLTSVPTSAKEMTTKLGVTAEYSPASRSLGTSPSPQTTVVSTAEDLAPKSATFAVQSSTQSPTTVSSSASVNSCAVNPCLHNGECVADNTSRGYHCRCPPSWQGDDCSVDVNECLSNPCPSTAMCNNTQGSFICKCPVGYQLEKGICNLVRTFVTEFKLKRTFLNTTVEKHSDLQEVENEITKTLNMCFSALPSYIRSTVHASRESNAVVISLQTTFSLASNVTLFDLADRMQKCVNSCKSSAEVCQLLGSQRRIFRAGSLCKRKSPECDKDTSICTDLDGVALCQCKSGYFQFNKMDHSCRACEDGYRLENETCMSCPFGLGGLNCGNPYQLITVVIAAAGGGLLLILGIALIVTCCRKNKNDISKLIFKSGDFQMSPYAEYPKNPRSQEWGREAIEMHENGSTKNLLQMTDVYYSPTSVRNPELERNGLYPAYTGLPGSRHSCIFPGQYNPSFISDESRRRDYF | – | – | – | – | – | – | – | – | – | – | – | – | – | lost | weakened
